Test results: US8901118B2, “Compounds and methods for kinase modulation, and indications therefor” (Plexxikon Inc., priority 2010, dated 2014)

How the values were obtained:
BCR-NTRK3 BaF3 cells = biological target: T1, BCR-NTRK3 BaF3 cells (Homo sapiens, UniProt Q16288); experiment: BaF3 BCR-NTRK3 cell proliferation assay (ATPlite); type: cell-based; conditions: read-out: Inhibition of Cell Proliferation IC50, BCR/BaF3 TrkC
T1 construct: fused on or other part: P11274 (Breakpoint cluster region protein)
T1 sequence (Q16288 whole entry, the tested form may be a part): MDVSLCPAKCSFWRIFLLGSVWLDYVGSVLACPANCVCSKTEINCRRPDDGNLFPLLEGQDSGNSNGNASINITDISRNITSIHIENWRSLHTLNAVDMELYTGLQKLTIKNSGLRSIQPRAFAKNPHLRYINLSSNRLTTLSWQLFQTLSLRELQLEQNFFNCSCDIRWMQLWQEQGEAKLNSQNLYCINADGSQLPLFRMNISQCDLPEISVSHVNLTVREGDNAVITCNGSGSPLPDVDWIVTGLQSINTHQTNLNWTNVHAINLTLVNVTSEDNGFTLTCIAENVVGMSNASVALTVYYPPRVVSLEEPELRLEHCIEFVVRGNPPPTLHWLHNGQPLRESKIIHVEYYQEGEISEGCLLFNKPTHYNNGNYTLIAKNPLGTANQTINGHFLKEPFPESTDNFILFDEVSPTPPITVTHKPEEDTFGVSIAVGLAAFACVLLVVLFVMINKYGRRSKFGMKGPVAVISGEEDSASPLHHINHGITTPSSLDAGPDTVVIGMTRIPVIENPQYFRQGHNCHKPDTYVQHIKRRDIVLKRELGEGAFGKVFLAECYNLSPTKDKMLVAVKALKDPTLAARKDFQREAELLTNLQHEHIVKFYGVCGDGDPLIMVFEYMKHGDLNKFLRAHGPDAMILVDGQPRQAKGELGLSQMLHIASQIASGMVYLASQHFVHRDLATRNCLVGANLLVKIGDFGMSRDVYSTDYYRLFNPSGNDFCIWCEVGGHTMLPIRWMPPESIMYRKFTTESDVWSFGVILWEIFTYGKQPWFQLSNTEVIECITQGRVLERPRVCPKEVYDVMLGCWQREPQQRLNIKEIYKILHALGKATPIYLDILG
How it was run: (§1)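 Cells are plated overnight: BaF3 at 10,000/well in G418 medium without WEHI/IL-3, MV-4-11 at 25,000/well in IMDM with 10% FBS. An 8-point 1:3 compound titration (10 μM top) is then added, and plates are incubated 3 days at 37 °C before ATPlite readout and IC50 determination.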

CYP2C9 = CYP2C9 (Homo sapiens, UniProt P11712); experiment: CYP2C9 inhibition (fluorescent substrate MFC); type: in vitro ADME; conditions: read-out: Cyp IC50 2C9
Sequence of CYP2C9 (P11712 whole entry): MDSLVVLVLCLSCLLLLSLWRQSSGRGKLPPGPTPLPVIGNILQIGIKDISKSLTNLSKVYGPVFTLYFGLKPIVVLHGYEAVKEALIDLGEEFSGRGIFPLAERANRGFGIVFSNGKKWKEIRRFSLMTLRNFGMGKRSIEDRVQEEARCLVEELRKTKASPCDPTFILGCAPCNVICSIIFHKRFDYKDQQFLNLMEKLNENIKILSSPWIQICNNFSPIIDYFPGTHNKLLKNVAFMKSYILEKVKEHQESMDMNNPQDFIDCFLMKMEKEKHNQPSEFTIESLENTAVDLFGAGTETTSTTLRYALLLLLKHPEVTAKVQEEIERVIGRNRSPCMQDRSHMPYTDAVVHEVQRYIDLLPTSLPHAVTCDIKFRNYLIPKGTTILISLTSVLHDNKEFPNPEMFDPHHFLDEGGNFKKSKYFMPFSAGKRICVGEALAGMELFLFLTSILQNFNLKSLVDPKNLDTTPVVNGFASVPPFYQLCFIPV
How it was run: (§2)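 Test compound titrated 1:1 across ten concentrations; metabolite fluorescence measured after 37 °C incubation of 15 min (CYP1A2), 30 min (CYP2C19, CYP2D6) or 45 min (CYP2C9). IC50 from signal versus concentration.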

CYP2C19 = CYP2C19 (Homo sapiens, UniProt P33261); experiment: CYP2C19 inhibition (fluorescent substrate CEC); type: in vitro ADME; conditions: read-out: Cyp IC50 2C19
Sequence of CYP2C19 (P33261 whole entry): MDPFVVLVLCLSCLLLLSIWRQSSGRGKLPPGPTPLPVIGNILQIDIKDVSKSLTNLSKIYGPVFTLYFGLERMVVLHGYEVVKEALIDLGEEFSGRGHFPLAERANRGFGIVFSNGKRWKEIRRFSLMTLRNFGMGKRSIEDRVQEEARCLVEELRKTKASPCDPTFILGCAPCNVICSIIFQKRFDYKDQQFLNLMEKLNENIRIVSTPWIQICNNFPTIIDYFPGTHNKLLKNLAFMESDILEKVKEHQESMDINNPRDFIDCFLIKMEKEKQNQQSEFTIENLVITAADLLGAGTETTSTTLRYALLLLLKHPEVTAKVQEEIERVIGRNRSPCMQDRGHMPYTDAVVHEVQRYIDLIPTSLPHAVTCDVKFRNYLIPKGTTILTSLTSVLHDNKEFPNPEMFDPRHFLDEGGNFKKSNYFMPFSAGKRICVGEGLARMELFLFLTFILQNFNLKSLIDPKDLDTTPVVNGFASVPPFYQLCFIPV
How it was run: as §2

BCR-NTRK1 BaF3 cells = biological target: T2, BCR-NTRK1 BaF3 cells (Homo sapiens, UniProt P04629); experiment: BaF3 BCR-NTRK1 cell proliferation assay (ATPlite); type: cell-based; conditions: read-out: Inhibition of Cell Proliferation IC50, BCR/BaF3 TrkA
T2 construct: fused on or other part: P11274 (Breakpoint cluster region protein)
T2 sequence (P04629 510-781): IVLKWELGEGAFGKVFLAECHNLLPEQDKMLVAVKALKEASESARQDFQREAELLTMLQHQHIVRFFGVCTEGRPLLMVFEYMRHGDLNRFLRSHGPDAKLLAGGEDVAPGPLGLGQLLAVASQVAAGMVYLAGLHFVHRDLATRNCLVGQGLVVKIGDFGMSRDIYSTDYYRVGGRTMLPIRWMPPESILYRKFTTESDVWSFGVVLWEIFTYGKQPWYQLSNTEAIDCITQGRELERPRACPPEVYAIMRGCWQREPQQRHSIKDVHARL
How it was run: as §1

BCR-NTRK2 BaF3 cells = biological target: T3, BCR-NTRK2 BaF3 cells (Homo sapiens, UniProt Q16620); experiment: BaF3 BCR-NTRK2 cell proliferation assay (ATPlite); type: cell-based; conditions: read-out: Inhibition of Cell Proliferation IC50, BCR/BaF3 TrkB
T3 construct: fused on or other part: P11274 (Breakpoint cluster region protein)
T3 sequence (Q16620 538-807): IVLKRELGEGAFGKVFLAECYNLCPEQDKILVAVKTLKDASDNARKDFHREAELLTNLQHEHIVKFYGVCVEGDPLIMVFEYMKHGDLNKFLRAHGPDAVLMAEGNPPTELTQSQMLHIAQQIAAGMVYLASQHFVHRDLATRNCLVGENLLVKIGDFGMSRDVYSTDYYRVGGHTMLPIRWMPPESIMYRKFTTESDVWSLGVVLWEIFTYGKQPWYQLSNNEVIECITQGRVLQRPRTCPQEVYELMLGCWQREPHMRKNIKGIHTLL
How it was run: as §1

CYP3A4(BFC) = CYP3A4(BFC) (Homo sapiens, UniProt P08684); experiment: CYP3A4(BFC) inhibition; type: in vitro ADME; conditions: CYP3A4, substrate BFC; read-out: Cyp IC50 3A4(BFC)
Sequence of CYP3A4(BFC) (P08684 whole entry): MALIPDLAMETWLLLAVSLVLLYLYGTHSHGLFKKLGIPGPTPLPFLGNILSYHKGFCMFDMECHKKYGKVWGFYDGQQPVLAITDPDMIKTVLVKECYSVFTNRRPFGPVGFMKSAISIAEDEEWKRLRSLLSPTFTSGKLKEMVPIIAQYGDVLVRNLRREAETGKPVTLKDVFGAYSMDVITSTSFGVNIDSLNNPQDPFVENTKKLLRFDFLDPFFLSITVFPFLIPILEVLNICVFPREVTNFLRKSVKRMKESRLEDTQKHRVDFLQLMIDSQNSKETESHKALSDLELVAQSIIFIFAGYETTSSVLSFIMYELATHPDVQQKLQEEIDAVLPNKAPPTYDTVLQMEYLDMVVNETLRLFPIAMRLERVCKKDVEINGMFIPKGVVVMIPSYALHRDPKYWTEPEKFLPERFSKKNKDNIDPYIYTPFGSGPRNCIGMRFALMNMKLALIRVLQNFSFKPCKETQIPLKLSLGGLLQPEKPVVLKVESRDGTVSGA
How it was run: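 This fluorescence assay tracks how test compounds reduce CYP3A4 turnover of BFC, with enzyme and substrate from BD Biosciences. A 10-point 1:1 dilution series in cofactor mix (1.3% NADPH Regeneration Solution A, 1.04% Solution B, 5% acetonitrile, 0.05% DMSO) was dispensed at 10 μL into 384 well plates, preincubated 10 minutes at 37° C, then incubated 30 min and read on a Tecan Safire 2.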

Structure (SMILES)	IC50 (BCR-NTRK3 BaF3 cells)	IC50 (CYP2C9)	IC50 (CYP2C19)	IC50 (BCR-NTRK1 BaF3 cells)	IC50 (BCR-NTRK2 BaF3 cells)	IC50 (CYP3A4(BFC))
COc1ccc(Nc2ccc(C(=O)c3c[nH]c4ncnc(NC5CCCCC5)c34)c(F)n2)cn1 [Compound P-4082, [4-(cyclohexylamino)-7H-pyrrolo[2,3-d]pyrimidin-5-yl]-[2-fluoro-6-[(6-methoxy-3-pyridyl)amino]-3-pyridyl]methanone]	< 0.01 µM	> 10 µM	> 10 µM	< 0.01 µM	< 0.01 µM	> 10 µM
CNc1ncnc2[nH]cc(C(=O)c3ccc(Nc4ccc(OC)nc4)nc3F)c12 [Compound P-4083, [2-fluoro-6-[(6-methoxy-3-pyridyl)amino]-3-pyridyl]-[4-(methylamino)-7H-pyrrolo[2,3-d]pyrimidin-5-yl]methanone]	< 0.01 µM	> 10 µM	> 10 µM	< 0.01 µM	< 0.01 µM	> 10 µM
COc1ccc(Nc2ccc(C(=O)c3c[nH]c4ncnc(NCC(F)(F)F)c34)c(F)n2)cn1 [Compound P-4084, [2-fluoro-6-[(6-methoxy-3-pyridyl)amino]-3-pyridyl]-[4-(2,2,2-trifluoroethylamino)-7H-pyrrolo[2,3-d]pyrimidin-5-yl]methanone]	< 0.01 µM	> 10 µM	5 to 10 µM	< 0.1 µM	< 0.01 µM	> 10 µM
O=C(c1ccc(NC2CCC(F)(F)CC2)nc1)c1c[nH]c2ncnc(NCC(F)(F)F)c12 [Compound P-4087, [6-[(4,4-difluorocyclohexyl)amino]-3-pyridyl]-[4-(2,2,2-trifluoroethylamino)-7H-pyrrolo[2,3-d]pyrimidin-5-yl]methanone]	< 0.01 µM	> 10 µM	> 10 µM	< 1 µM	< 0.1 µM	> 10 µM
O=C(c1ccc(NC2CCC(F)(F)CC2)nc1)c1c[nH]c2ncnc(NC3CC3)c12 [Compound P-4088, [4-(cyclopropylamino)-7H-pyrrolo[2,3-d]pyrimidin-5-yl]-[6-[(4,4-difluorocyclohexyl)amino]-3-pyridyl]methanone]	< 0.01 µM	> 10 µM	> 10 µM	< 0.1 µM	< 0.1 µM	> 10 µM
CNc1ncnc2[nH]cc(C(=O)c3ccc(NC4CCC(F)(F)CC4)nc3)c12 [Compound P-4089, [6-[(4,4-difluorocyclohexyl)amino]-3-pyridyl]-[4-(methylamino)-7H-pyrrolo[2,3-d]pyrimidin-5-yl]methanone]	< 0.01 µM	> 10 µM	> 10 µM	< 1 µM	< 0.1 µM	> 10 µM
O=C(c1ccc(Nc2ccc(C3CC3)nc2)nc1F)c1c[nH]c2ncnc(NCC(F)(F)F)c12 [Compound P-4090, [6-[(6-cyclopropyl-3-pyridyl)amino]-2-fluoro-3-pyridyl]-[4-(2,2,2-trifluoroethylamino)-7H-pyrrolo[2,3-d]pyrimidin-5-yl]methanone]	< 0.01 µM	> 10 µM	> 10 µM	< 0.1 µM	< 0.01 µM	> 10 µM
O=C(c1ccc(Nc2ccc(C(F)(F)F)nc2)nc1F)c1c[nH]c2ncnc(NC3CC3)c12 [Compound P-4091, [4-(cyclopropylamino)-7H-pyrrolo[2,3-d]pyrimidin-5-yl]-[2-fluoro-6-[[6-(trifluoromethyl)-3-pyridyl]amino]-3-pyridyl]methanone]	< 0.01 µM	> 10 µM	> 10 µM	< 0.01 µM	< 0.01 µM	> 10 µM
CNc1ncnc2[nH]cc(C(=O)c3ccc(Nc4ccc(C(F)(F)F)nc4)nc3F)c12 [Compound P-4092, [2-fluoro-6-[[6-(trifluoromethyl)-3-pyridyl]amino]-3-pyridyl]-[4-(methylamino)-7H-pyrrolo[2,3-d]pyrimidin-5-yl]methanone]	< 0.01 µM	< 5 µM	< 5 µM	< 0.01 µM	< 0.01 µM	> 10 µM
O=C(c1ccc(Nc2ccc(C3CC3)nc2)nc1F)c1c[nH]c2ncnc(NC3CC3)c12 [Compound P-4093, [4-(cyclopropylamino)-7H-pyrrolo[2,3-d]pyrimidin-5-yl]-[6-[(6-cyclopropyl-3-pyridyl)amino]-2-fluoro-3-pyridyl]methanone]	< 0.01 µM	> 10 µM	> 10 µM	< 0.01 µM	< 0.01 µM	> 10 µM
CNc1ncnc2[nH]cc(C(=O)c3ccc(Nc4ccc(C5CC5)nc4)nc3F)c12 [Compound P-4094, [6-[(6-cyclopropyl-3-pyridyl)amino]-2-fluoro-3-pyridyl]-[4-(methylamino)-7H-pyrrolo[2,3-d]pyrimidin-5-yl]methanone]	< 0.01 µM	< 5 µM	< 5 µM	< 0.01 µM	< 0.01 µM	> 10 µM
CCc1ccc(Nc2ccc(C(=O)c3c[nH]c4ncnc(NC5CCC5)c34)c(F)n2)cn1 [Compound P-4095, [4-(cyclobutylamino)-7H-pyrrolo[2,3-d]pyrimidin-5-yl]-[6-[(6-ethyl-3-pyridyl)amino]-2-fluoro-3-pyridyl]methanone]	< 0.01 µM	> 10 µM	> 10 µM	< 0.01 µM	< 0.01 µM	> 10 µM

Other lines, results leading:

IC50 (BCR-NTRK3 BaF3 cells)	IC50 (CYP2C9)	IC50 (CYP2C19)	IC50 (BCR-NTRK1 BaF3 cells)	IC50 (BCR-NTRK2 BaF3 cells)	IC50 (CYP3A4(BFC))	Structure (SMILES)
< 0.01 µM	> 10 µM	5 to 10 µM	< 0.01 µM	< 0.01 µM	> 10 µM	CCC(CC)Nc1ncnc2[nH]cc(C(=O)c3ccc(Nc4ccc(OC)nc4)nc3F)c12 [Compound P-4077, [4-(1-ethylpropylamino)-7H-pyrrolo[2,3-d]pyrimidin-5-yl]-[2-fluoro-6-[(6-methoxy-3-pyridyl)amino]-3-pyridyl]methanone]
< 0.01 µM	> 10 µM	> 10 µM	< 0.01 µM	< 0.01 µM	> 10 µM	CCC(C)Nc1ncnc2[nH]cc(C(=O)c3ccc(Nc4ccc(OC)nc4)nc3F)c12 (stereo not drawn) [Compound P-4078, [2-fluoro-6-[(6-methoxy-3-pyridyl)amino]-3-pyridyl]-[4-(sec-butylamino)-7H-pyrrolo[2,3-d]pyrimidin-5-yl]methanone]
< 0.01 µM	> 10 µM	5 to 10 µM	< 0.01 µM	< 0.01 µM	> 10 µM	COCCCNc1ncnc2[nH]cc(C(=O)c3ccc(Nc4ccc(OC)nc4)nc3F)c12 [Compound P-4079, [2-fluoro-6-[(6-methoxy-3-pyridyl)amino]-3-pyridyl]-[4-(3-methoxypropylamino)-7H-pyrrolo[2,3-d]pyrimidin-5-yl]methanone]
< 0.01 µM	> 10 µM	> 10 µM	< 0.01 µM	< 0.01 µM	> 10 µM	CCCCNc1ncnc2[nH]cc(C(=O)c3ccc(Nc4ccc(OC)nc4)nc3F)c12 [Compound P-4080, [4-(butylamino)-7H-pyrrolo[2,3-d]pyrimidin-5-yl]-[2-fluoro-6-[(6-methoxy-3-pyridyl)amino]-3-pyridyl]methanone]
< 0.01 µM	> 10 µM	> 10 µM	< 0.01 µM	< 0.01 µM	> 10 µM	CCNc1ncnc2[nH]cc(C(=O)c3ccc(Nc4ccc(OC)nc4)nc3F)c12 [Compound P-4081, [4-(ethylamino)-7H-pyrrolo[2,3-d]pyrimidin-5-yl]-[2-fluoro-6-[(6-methoxy-3-pyridyl)amino]-3-pyridyl]methanone]
